Test results from US10815238B2, “Antimicrobial compounds and methods of making and using the same” (BIOVERSYS AG, priority 2013, dated 2020).

Tested on: Eschericia coli (E. coli) strain ATCC25922
Assay: Standard microdilution assay, MIC against E. coli ATCC25922
Assay type: cell-based
Conditions: Escherichia coli; E. coli strain ATCC25922, standard microdilution assay; cutoff 16 micrograms/mL; read-out: MIC E. Coli
Summary of the method: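 Scoring as + or − used a 16 micrograms/mL cutoff on minimum inhibitory concentrations. These came from CLSI-standard microdilution, quality-controlled with reference strains tested in the same run.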

| SMILES | MIC [µg/mL] |
| --- | --- |
| C[C@H](N)CCCc1cc(Cl)c(F)c(-c2cc3cn(-c4ccc(CNCC[C@H](CO)NC(=N)N)cc4)c(=O)nc3[nH]2)c1 [Compound 181] | < 16 |
| C[C@H](N)CCCc1cc(Cl)c(F)c(-c2cc3cn(-c4ccc(CNCC[C@@H](N)CN)cc4)c(=O)nc3[nH]2)c1 [Compound 182] | < 16 |
| CC[C@@H](CCNCc1ccc(-n2cc3cc(-c4cc(CCC[C@H](C)N)cc(Cl)c4F)[nH]c3nc2=O)cc1)NC(=N)N [Compound 183] | < 16 |
| C[C@H](N)CCCc1cc(Cl)c(F)c(-c2cc3cn(-c4ccc(CNCC[C@@H](N)CCO)cc4)c(=O)nc3[nH]2)c1 [Compound 184] | < 16 |
| C[C@H](N)CCCc1cc(Cl)c(F)c(-c2cc3cn(-c4ccc(CNCC[C@H](CCO)NC(=N)N)cc4)c(=O)nc3[nH]2)c1 [Compound 185] | < 16 |
| CC(CCNCc1ccc(-n2cc3cc(-c4cc(CCC[C@H](C)N)cc(Cl)c4F)[nH]c3nc2=O)cc1)NC(=N)N (stereo partly shown) [Compound 186] | < 16 |
| C[C@H](N)CCCc1cc(Cl)c(F)c(-c2cc3cn(-c4ccc(CNCC[C@@H](C)N)cc4)c(=O)nc3[nH]2)c1 [Compound 187] | < 16 |
| C[C@H](N)CCCc1cc(Cl)c(F)c(-c2cc3cn(-c4ccc(CNCC[C@@H](C)NC(=N)N)cc4)c(=O)nc3[nH]2)c1 [Compound 188] | < 16 |
| C[C@H](N)CCCc1cc(Cl)c(F)c(-c2cc3cn(-c4ccc(CNCCC5(N)CNC5)cc4)c(=O)nc3[nH]2)c1 [Compound 189] | < 16 |
| C[C@H](N)CCCc1cc(Cl)c(F)c(-c2cc3cn(-c4ccc(CNCCC5(N)CN(C(=N)N)C5)cc4)c(=O)nc3[nH]2)c1 [Compound 190] | < 16 |
| C[C@H](N)CCCc1cc(Cl)c(F)c(-c2cc3cn(-c4ccc(CNCC[C@@H](CO)NC(=N)N)cc4)c(=O)nc3[nH]2)c1 [Compound 191] | < 16 |
| C[C@H](N)CCCc1cc(Cl)c(F)c(-c2cc3cn(-c4ccc(CNCC[C@H](N)CO)cc4)c(=O)nc3[nH]2)c1 [Compound 192] | < 16 |
| C[C@H](N)CCCc1cc(Cl)c(F)c(-c2cc3cn(-c4ccc([C@H](C)NCC[C@@H](C)N)cc4)c(=O)nc3[nH]2)c1 [Compound 193] | < 16 |
| C[C@H](N)CCCc1cc(Cl)c(F)c(-c2cc3cn(-c4ccc([C@H](C)NCC[C@@H](C)NC(=N)N)cc4)c(=O)nc3[nH]2)c1 [Compound 194] | < 16 |
| C[C@H](N)CCCc1cc(Cl)c(F)c(-c2cc3cn(-c4ccc(CN[C@@H](C)CCNC(=N)N)cc4)c(=O)nc3[nH]2)c1 [Compound 195] | < 16 |
| C[C@H](N)CCCc1cc(Cl)c(F)c(-c2cc3cn(-c4ccc(CN[C@@H](C)CCN)cc4)c(=O)nc3[nH]2)c1 [Compound 196] | < 16 |
| CC[C@@H](N)CCNCc1ccc(-n2cc3cc(-c4cc(CCC[C@H](C)N)cc(Cl)c4F)[nH]c3nc2=O)cc1 [Compound 197] | < 16 |
| CC[C@H](CCNCc1ccc(-n2cc3cc(-c4cc(CCC[C@H](C)N)cc(Cl)c4F)[nH]c3nc2=O)cc1)NC(=N)N [Compound 198] | < 16 |
| C[C@H](N)CCCc1cc(-c2cc3cn(-c4ccc([C@H](C)NCC[C@@H](C)N)cc4)c(=O)nc3[nH]2)cc(C(F)(F)F)c1 [Compound 199] | < 16 |
| C[C@H](N)CCCc1cc(-c2cc3cn(-c4ccc([C@H](C)NCC[C@@H](C)NC(=N)N)cc4)c(=O)nc3[nH]2)cc(C(F)(F)F)c1 [Compound 200] | < 16 |
| C=CC[C@H](N)CCNCc1ccc(-n2cc3cc(-c4cc(CCC[C@H](C)N)cc(Cl)c4F)[nH]c3nc2=O)cc1 [Compound 201] | < 16 |
| C=CC[C@@H](CCNCc1ccc(-n2cc3cc(-c4cc(CCC[C@H](C)N)cc(Cl)c4F)[nH]c3nc2=O)cc1)NC(=N)N [Compound 202] | < 16 |

| SMILES | MIC [µg/mL] |
| --- | --- |
| C[C@H](N)CCCc1cc(Cl)c(F)c(-c2cc3cn(-c4ccc(CNCC[C@H](CN)NC(=N)N)cc4)c(=O)nc3[nH]2)c1 [Compound 203] | < 16 |
| C[C@H](N)CCCc1cc(Cl)c(F)c(-c2cc3cn(-c4ccc(CNCC[C@@H]5CN=C(N)N5)cc4)c(=O)nc3[nH]2)c1 [Compound 204] | < 16 |
| C[C@H](N)CCCc1cc(Cl)c(F)c(-c2cc3cn(-c4ccc([C@H](C)NCCCN(C)C(=N)N)cc4)c(=O)nc3[nH]2)c1 [Compound 205] | < 16 |
| C=CC[C@@H](N)CCNCc1ccc(-n2cc3cc(-c4cc(CCC[C@H](C)N)cc(Cl)c4F)[nH]c3nc2=O)cc1 [Compound 206] | < 16 |
| C=CC[C@H](CCNCc1ccc(-n2cc3cc(-c4cc(CCC[C@H](C)N)cc(Cl)c4F)[nH]c3nc2=O)cc1)NC(=N)N [Compound 207] | < 16 |
| CNCCCN[C@@H](C)c1ccc(-n2cc3cc(-c4cc(CCC[C@H](C)N)cc(Cl)c4F)[nH]c3nc2=O)cc1 [Compound 208] | < 16 |
| C[C@H](N)CCCc1cc(Cl)c(F)c(-c2cc3cn(-c4ccc(CN[C@H](C)CCNC(=N)N)cc4)c(=O)nc3[nH]2)c1 [Compound 209] | < 16 |
| C[C@H](N)CCCc1cc(Cl)c(F)c(-c2cc3cn(-c4ccc(CN[C@H](C)CCN)cc4)c(=O)nc3[nH]2)c1 [Compound 210] | < 16 |
| C[C@H](N)CCCc1cc(-c2cc3cn(-c4ccc([C@H](C)NCCCN(C)C(=N)N)cc4)c(=O)nc3[nH]2)cc(C(F)(F)F)c1 [Compound 211] | < 16 |
| C=CCN(CCCN[C@@H](C)c1ccc(-n2cc3cc(-c4cc(CCC[C@H](C)N)cc(Cl)c4F)[nH]c3nc2=O)cc1)C(=N)N [Compound 212] | < 16 |
| C=CCNCCCN[C@@H](C)c1ccc(-n2cc3cc(-c4cc(CCC[C@H](C)N)cc(Cl)c4F)[nH]c3nc2=O)cc1 [Compound 213] | < 16 |
| C[C@H](N)CCCc1cc(-c2cc3cn(-c4ccc([C@H](C)NCCCNC(=N)N)cc4)c(=O)nc3[nH]2)c(F)c(C(F)(F)F)c1F [Compound 214] | < 16 |
| C=CCN(CCCN[C@@H](C)c1ccc(-n2cc3cc(-c4cc(CCC[C@H](C)N)cc(C(F)(F)F)c4)[nH]c3nc2=O)cc1)C(=N)N [Compound 215] | < 16 |
| C=CCNCCCN[C@@H](C)c1ccc(-n2cc3cc(-c4cc(CCC[C@H](C)N)cc(C(F)(F)F)c4)[nH]c3nc2=O)cc1 [Compound 216] | < 16 |
| CCc1c(F)c(CCC[C@H](C)N)cc(-c2cc3cn(-c4ccc([C@H](C)NCCCN)cc4)c(=O)nc3[nH]2)c1F [Compound 217] | < 16 |
| CCc1c(F)c(CCC[C@H](C)N)cc(-c2cc3cn(-c4ccc([C@H](C)NCCCNC(=N)N)cc4)c(=O)nc3[nH]2)c1F [Compound 218] | < 16 |
| C[C@H](N)CCCc1cc(Cl)c(F)c(-c2cc3cn(-c4ccc([C@H](C)N[C@@H](C)CCNC(=N)N)cc4)c(=O)nc3[nH]2)c1 [Compound 219] | < 16 |
| C[C@H](N)CCCc1cc(-c2cc3cn(-c4ccc([C@H](C)N[C@@H](C)CCNC(=N)N)cc4)c(=O)nc3[nH]2)cc(C(F)(F)F)c1 [Compound 220] | < 16 |
| C[C@H](N)CCCc1cc(Cl)c(F)c(-c2cc3cn(-c4ccc([C@H](C)NCC[C@H](C)N)cc4)c(=O)nc3[nH]2)c1 [Compound 221] | < 16 |
| C[C@H](N)CCCc1cc(Cl)c(F)c(-c2cc3cn(-c4ccc([C@H](C)NCC[C@H](C)NC(=N)N)cc4)c(=O)nc3[nH]2)c1 [Compound 222] | < 16 |
| C[C@H](N)CCCc1cc(OC(F)(F)F)c(F)c(-c2cc3cn(-c4ccc([C@H](C)NCC[C@H](C)N)cc4)c(=O)nc3[nH]2)c1 [Compound 223] | < 16 |
